Where “and” joins values, the source holds several entries; their conditions need not be identical. Equal entries are not always repeated. Where two headings read alike, the source gives them in different places.
How the values were obtained:
[1] = tested on: P. berghei exo-erythrocytic forms; experiment: P. berghei-Luc liver stage assay; format: cell-based; details: for Selectivity index (SI) = (mammalian cell IC50)/(Pb EEF IC50): HepG2 vs Pb EEF; for IC50: Plasmodium berghei, 48 h, read-out: Pb EEF IC50
human HDAC6 (hHDAC6) = target: T1, human HDAC6 (hHDAC6) (Homo sapiens, UniProt Q9UBN7); experiment: In vitro testing on hHDAC6
T1 sequence (Q9UBN7 1-1215): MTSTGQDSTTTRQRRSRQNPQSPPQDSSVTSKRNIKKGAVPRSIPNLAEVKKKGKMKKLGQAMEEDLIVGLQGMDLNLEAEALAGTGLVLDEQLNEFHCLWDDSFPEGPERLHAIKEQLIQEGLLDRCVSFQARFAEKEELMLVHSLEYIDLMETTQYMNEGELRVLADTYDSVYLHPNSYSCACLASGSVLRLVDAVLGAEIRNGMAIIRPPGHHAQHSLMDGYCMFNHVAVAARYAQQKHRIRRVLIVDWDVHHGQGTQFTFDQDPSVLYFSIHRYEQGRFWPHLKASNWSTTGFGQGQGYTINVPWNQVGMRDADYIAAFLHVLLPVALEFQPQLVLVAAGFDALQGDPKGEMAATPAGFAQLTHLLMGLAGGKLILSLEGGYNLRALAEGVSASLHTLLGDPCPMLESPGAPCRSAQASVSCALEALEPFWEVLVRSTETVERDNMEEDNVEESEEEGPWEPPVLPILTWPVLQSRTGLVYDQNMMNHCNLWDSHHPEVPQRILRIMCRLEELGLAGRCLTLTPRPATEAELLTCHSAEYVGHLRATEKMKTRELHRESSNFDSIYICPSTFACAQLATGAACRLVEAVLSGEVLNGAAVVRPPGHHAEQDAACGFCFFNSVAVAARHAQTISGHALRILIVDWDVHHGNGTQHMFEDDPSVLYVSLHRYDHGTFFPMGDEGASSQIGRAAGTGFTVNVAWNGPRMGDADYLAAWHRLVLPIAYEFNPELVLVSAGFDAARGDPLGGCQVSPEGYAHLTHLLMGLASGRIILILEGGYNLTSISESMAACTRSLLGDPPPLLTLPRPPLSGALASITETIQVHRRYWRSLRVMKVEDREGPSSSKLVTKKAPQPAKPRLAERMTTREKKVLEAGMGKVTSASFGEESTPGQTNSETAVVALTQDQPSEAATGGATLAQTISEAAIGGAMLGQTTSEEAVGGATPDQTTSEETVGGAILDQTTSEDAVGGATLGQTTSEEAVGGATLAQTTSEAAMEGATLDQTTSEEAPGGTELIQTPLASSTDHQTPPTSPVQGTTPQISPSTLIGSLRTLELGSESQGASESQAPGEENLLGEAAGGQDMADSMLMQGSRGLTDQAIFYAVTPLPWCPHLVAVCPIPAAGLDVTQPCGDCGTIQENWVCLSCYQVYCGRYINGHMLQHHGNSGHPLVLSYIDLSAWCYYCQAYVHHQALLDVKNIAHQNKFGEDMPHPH

human HDAC1 (hHDAC1) [2] = target: T2, human HDAC1 (hHDAC1) (Homo sapiens, UniProt Q13547); experiment: In vitro testing on hHDAC1
[3] = tested on: 3D7 line of P. falciparum; experiment: P. falciparum asexual intraerythrocytic growth inhibition; format: cell-based; details: for Selectivity index (SI) = (mammalian cell IC50)/(P. falciparum IC50): HepG2 vs Pf3D7
HepG2 cells = experiment: HepG2 cytotoxicity bioluminescence assay; format: cell-based; details: Homo sapiens, HepG2, 48 h, read-out: IC50 (HepG2)
[4] = tested on: mature stage V P. falciparum gametocytes; experiment: Gametocytocidal activity; format: cell-based; details: Plasmodium falciparum, NF54, 48 h, read-out: Pf stage V gametocytes IC50
human HDAC1 (hHDAC1) [5] = target: T2, human HDAC1 (hHDAC1); details: read-out: hHDAC1 IC50; reference HDACi; ref [22]–[23]; cited from earlier work
P. falciparum histone H4 = experiment: Protein hyperacetylation assay; format: cell-based; details: trophozoite-stage Pf 3D7, 3 h, 5x IC50
[6] = Plasmodium falciparum, 3D7, read-out: IC50 (Pf3D7), asexual intraerythrocytic stage P. falciparum 3D7
[7] = Plasmodium falciparum, 3D7, read-out: IC50 (Pf3D7)

T2 sequence (Q13547 whole entry): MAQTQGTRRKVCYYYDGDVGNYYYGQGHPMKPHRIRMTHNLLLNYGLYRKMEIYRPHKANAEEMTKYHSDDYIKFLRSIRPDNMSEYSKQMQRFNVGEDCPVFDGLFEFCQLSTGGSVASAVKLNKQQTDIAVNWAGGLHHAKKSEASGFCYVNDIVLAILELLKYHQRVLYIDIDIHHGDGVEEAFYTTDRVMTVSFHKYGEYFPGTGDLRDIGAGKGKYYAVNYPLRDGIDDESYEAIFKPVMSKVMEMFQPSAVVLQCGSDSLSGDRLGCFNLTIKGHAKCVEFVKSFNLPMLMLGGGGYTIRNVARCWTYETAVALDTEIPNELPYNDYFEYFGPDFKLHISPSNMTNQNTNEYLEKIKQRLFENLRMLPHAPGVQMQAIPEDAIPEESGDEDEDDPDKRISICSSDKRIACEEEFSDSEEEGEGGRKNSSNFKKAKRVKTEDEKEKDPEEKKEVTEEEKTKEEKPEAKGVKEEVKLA

SMILES	Selectivity index (SI) = (mammalian cell IC50)/(Pb EEF IC50) [1]	IC50 [1]	IC50 (human HDAC6 (hHDAC6))	Selectivity index (SI) = hHDAC1/hHDAC6 (human HDAC6 (hHDAC6))	IC50 (human HDAC1 (hHDAC1) [2])	Selectivity index (SI) = (mammalian cell IC50)/(P. falciparum IC50) [3]	IC50 [3, 6]	IC50 (HepG2 cells)	IC50 [4]	IC50 (human HDAC1 (hHDAC1) [5])	IC50 ([3]; read-out: IC50 (Pf3D7), asexual intraerythrocytic stage P. falciparum 3D7)	histone acetylation compared to the vehicle control (in words) (P. falciparum histone H4)	IC50 [3, 7]
CNC(=O)CN(Cc1ccc(C(=O)NO)cc1)C(=O)c1ccccc1C [Compound 2t, N-(4-(Hydroxycarbamoyl)benzyl)-2-methyl-N-(2-(methylamino)-2-oxoethyl)benzamide]	>2	28000 nM	32 nM	63	2010 nM	> 704	54 to 120 nM	> 50000 nM	–	–	–	–	–
COc1ccccc1C(=O)N(CC(=O)NC(C)(C)C)Cc1ccc(C(=O)NO)cc1 [Compound 2f, N-(2-(tert-Butylamino)-2-oxoethyl)-N-(4-(hydroxycarbamoyl)benzyl)-2-methoxybenzamide]	>2	26700 nM	–	82	–	–	110 to 250 nM	> 50000 nM	–	–	–	–	–
COc1ccc(CNC(=O)CN(Cc2ccc(C(=O)NO)cc2)C(=O)c2cc(C)cc(C)c2)cc1 [Compound 2l, N-(4-(Hydroxycarbamoyl)benzyl)-N-(2-((4-methoxybenzyl)amino)-2-oxoethyl)-3,5-dimethylbenzamide]	34	570 nM	–	–	–	–	–	–	10200 nM	–	–	–	–
Cc1ccccc1C(=O)N(CC(=O)NC(C)(C)C)Cc1ccc(C(=O)NO)cc1 [Compound 2e, N-(2-(tert-Butylamino)-2-oxoethyl)-N-(4-(hydroxycarbamoyl)benzyl)-2-methylbenzamide]	>5	9700 nM	–	47	–	–	–	> 50000 nM	–	–	–	–	–
Cc1cc(C)cc(CNC(=O)CN(Cc2ccc(C(=O)NO)cc2)C(=O)c2cc(C)cc(C)c2)c1 [Compound 2p, N-(2-((3,5-Dimethylbenzyl)amino)-2-oxoethyl)-N-(4-(hydroxycarbamoyl)benzyl)-3,5-dimethylbenzamide]	35	580 nM	–	–	–	–	–	–	5270 nM	–	–	–	–
O=C(NO)c1ccc(CC(=O)N(CCO)c2ccccc2)cc1 [HPOB]	–	–	–	–	–	–	–	–	–	2100 nM	–	–	–
CNC(=O)CN(Cc1ccc(C(=O)NO)cc1)C(=O)c1cc(C)cc(C)c1 [Compound 2s, N-(4-(Hydroxycarbamoyl)benzyl)-3,5-dimethyl-N-(2-(methylamino)-2-oxoethyl)benzamide]	7	7170 nM	44 nM	7	290 nM	889	54 nM	48000 nM	16800 nM	–	–	–	–
CC(C)c1ccc(C(=O)N(CC(=O)NCc2ccccc2)Cc2ccc(C(=O)NO)cc2)cc1 [Compound 2h, N-(2-(Benzylamino)-2-oxoethyl)-N-(4-(hydroxycarbamoyl)benzyl)-4-isopropylbenzamide]	289	16 nM	51 nM	<1	19 nM	889–1483 and 889	5.2 to 8.8 nM	5000 to 13000 nM	–	–	5.2 nM	–	–
CN(C)c1ccc(C(=O)N(Cc2ccc(C(=O)NO)cc2)C(C)(C)C(=O)NC2CCCCC2)cc1 [Compound 2c, N-(1-(Cyclohexylamino)-2-methyl-1-oxopropan-2-yl)-4-(dimethylamino)-N-(4-(hydroxycarbamoyl)benzyl)benzamide]	>3	20100 nM	89 nM	5	450 nM	–	95 nM	> 50000 nM	16300 nM	–	–	–	–
CN(C)c1ccc(C(=O)N(Cc2ccc(C(=O)NO)cc2)C(C(=O)NC2CCCCC2)c2ccccc2)cc1 (racemic) [Compound 2d, rac-N-(2-(Cyclohexylamino)-2-oxo-1-phenylethyl)-4-(dimethylamino)-N-(4-(hydroxycarbamoyl)benzyl)benzamide]	>3	19300 nM	64 nM	13	840 nM	–	390 nM	> 50000 nM	14800 nM	–	–	–	–
CN(C)c1ccc(C(=O)N(CC(=O)NCc2ccccc2)Cc2ccc(C(=O)NO)cc2)cc1 [Compound 2i, N-(2-(Benzylamino)-2-oxoethyl)-4-(dimethylamino)-N-(4-(hydroxycarbamoyl)benzyl)benzamide]	28	22 nM	–	<1	7.7 nM	64	–	620 nM	–	–	–	–	–
O=C(CCCCCCC(=O)Nc1ccccc1)NO [SAHA, vorinostat, reference compound]	–	–	–	–	–	–	–	–	–	–	–	significantly increased acetylation	170 nM
CC(C)(C)c1ccc(C(=O)N(CC(=O)NCc2ccccc2)Cc2ccc(C(=O)NO)cc2)cc1 [Compound 2g, N-(2-(Benzylamino)-2-oxoethyl)-4-(tert-butyl)-N-(4-(hydroxycarbamoyl)benzyl)benzamide]	23	580 nM	71 nM	<1	34 nM	889–1483	–	5000 to 13000 nM	–	–	–	–	5.2 to 8.8 nM

From article PMC6502651 (ChemMedChem, 2019)
